Test results reported in patent US20200207782A1, “CHEMICALLY ACTIVATED WATER-SOLUBLE PRODRUG” (SUMITOMO DAINIPPON PHARMA CO., LTD, priority 2017, published 2020).
Several values for one entry are separate records, joined by “and”; a condition that tells them apart may be missing. Identical values can stand only once. Counter-ions that a name gives are not always drawn.

Experiments:
[1] = Solution stability test (residual ratio and generation of active form in buffers of pH 2.0 to 9.0); format: physicochemical; design: Rate of generation of active form after 24 hours in buffer with pH of 7.4: tested at 25 µM; details: for Residual ratio / Rate of generation of active form after 24 hours in buffer with pH of 7.4: 25° C.; for Residual ratio: 25 umol/L; for Degradation behaviour in buffers (in words): pH 2.0 to 9.0; for Rate of generation of active form after 24 hours in buffer with pH of 7.4: pH 7.4 buffer
Procedure: The test compounds were incubated at 25° C. at a concentration of 25 umol/L in a buffer prepared to have a pH of 2.0, 3.0, 5.0, 7.4, and 9.0. The compounds were measured by HPLC after 0, 3, 6, 9, 12, and 24 hours.
The buffers used at each pH are the following. • pH 2.0: 50 mmol/L glycine buffer • pH 3.0: 50 mmol/L citrate buffer • pH 5.0: 50 mmol/L citrate buffer • pH 7.4: 50 mmol/L phosphate buffer • pH 9.0: 50 mmol/L glycine buffer
The measurement conditions for HPLC are the following.
The yield of the Example and Reference Example compounds and active forms is calculated with each of the peak area of the Example and Reference Example compounds at 0 minutes and the peak area upon dissolution of the corresponding active form at 100 umol/L as 100%. The yield is denoted in terms of %

[2] = physchem; details: thermodynamic from solid; for solubility at 24 h: pH 2, aqueous buffer
Procedure: The solubility of the water-soluble prodrugs described in the Examples and the Reference Examples was measured. […] The filtrate was measured by HPLC.

SMILES	Residual ratio ([1]; pH2.0 buffer, 0 hr)	Residual ratio ([1]; pH2.0 buffer, 3 hr)	Degradation behaviour in buffers (in words) [1]	Residual ratio ([1]; pH3.0 buffer, 0 hr)	Residual ratio ([1]; pH3.0 buffer, 3 hr)	Residual ratio ([1]; pH3.0 buffer, 6 hr)	Residual ratio ([1]; pH3.0 buffer, 9 hr)	Residual ratio ([1]; pH3.0 buffer, 12 hr)	Residual ratio ([1]; pH3.0 buffer, 24 hr)	Residual ratio ([1]; pH5.0 buffer, 0 hr)	Residual ratio ([1]; pH5.0 buffer, 3 hr)	Residual ratio ([1]; pH5.0 buffer, 6 hr)	Residual ratio ([1]; pH5.0 buffer, 9 hr)	Residual ratio ([1]; pH5.0 buffer, 12 hr)	Residual ratio ([1]; pH7.4 buffer, 0 hr)	Residual ratio ([1]; pH7.4 buffer, 3 hr)	Residual ratio ([1]; pH7.4 buffer, 6 hr)	Residual ratio ([1]; pH7.4 buffer, 9 hr)	Stability in solution (in words) ([1]; pH of 2.0, 25° C.)	Stability in solution (in words) ([1]; pH of 3.0, 25° C.)	further results
NCCCNC(=O)Oc1c(OC(=O)NCCCN)c(-c2ccccc2)c2c(c1-c1ccccc1)OCO2 [Example 6, 4,7-Diphenyl-1,3-benzodioxole-5,6-diyl bis[(3-aminopropyl)carbamate]dihydrochloride]	100%	100%	pH dependent and chemical degradation progressed	100%	100%	100%	100%	100%	100%	100%	100%	99.8%	99.6%	99.5%	96.8%	65.8%	45.2%	31.4%	very stable	very stable	Residual ratio ([1]; pH2.0 buffer, 6 hr): 100%; Residual ratio ([1]; pH2.0 buffer, 9 hr): 100%; Residual ratio ([1]; pH2.0 buffer, 12 hr): 100%; Residual ratio ([1]; pH2.0 buffer, 24 hr): 100%; Residual ratio ([1]; pH5.0 buffer, 24 hr): 99.5%; Residual ratio ([1]; pH7.4 buffer, 12 hr): 22.2%; Residual ratio ([1]; pH7.4 buffer, 24 hr): 17% and 16.5%; Residual ratio ([1]; pH9.0 buffer, 0 hr): 10.4%; Residual ratio ([1]; pH9.0 buffer, 3 hr): 0.4%; Residual ratio ([1]; pH9.0 buffer, 6 hr): 0.7%; Residual ratio ([1]; pH9.0 buffer, 9 hr): 0.7%; Residual ratio ([1]; pH9.0 buffer, 12 hr): 0.9%; Residual ratio ([1]; pH9.0 buffer, 24 hr): 0.9%; Stability in solution (in words) ([1]; pH of 5.0, 25° C.): very stable; solubility at 24 h [2]: > 10000 µg/mL
Cc1cc(OC(=O)NCCNCC(=O)O)c2ccccc2c1OC(=O)NCCNCC(=O)O [Example 2, 2,2′-[(2-Methylnaphthalene-1,4-diyl)bis(oxycarbonyliminoethane-2,1-diylimino)]diacetic acid dihydrochloride]	100%	100%	pH dependent and chemical degradation progressed	101%	101%	101%	100%	100%	101%	101%	101%	102%	102%	100%	102%	50.7%	32.0%	16.2%	very stable	very stable	Residual ratio ([1]; pH2.0 buffer, 6 hr): 99.8%; Residual ratio ([1]; pH2.0 buffer, 9 hr): 99.7%; Residual ratio ([1]; pH2.0 buffer, 12 hr): 102%; Residual ratio ([1]; pH2.0 buffer, 24 hr): 100%; Residual ratio ([1]; pH5.0 buffer, 24 hr): 102%; Residual ratio ([1]; pH7.4 buffer, 12 hr, dihydrochloride): 0%; Residual ratio ([1]; pH7.4 buffer, 24 hr): 0.0%; Rate of generation of active form after 24 hours in buffer with pH of 7.4 [1]: 7%; Residual ratio ([1]; pH9.0 buffer, 0 hr): 44.5%; Residual ratio ([1]; pH9.0 buffer, 3 hr, dihydrochloride): 0%; Residual ratio ([1]; pH9.0 buffer, 6 hr): 0.0%; Residual ratio ([1]; pH9.0 buffer, 9 hr): 0.0%; Residual ratio ([1]; pH9.0 buffer, 12 hr): 0.0%; Residual ratio ([1]; pH9.0 buffer, 24 hr): 0.0%; Stability in solution (in words) ([1]; pH of 5.0, 25° C.): very stable; solubility at 24 h [2]: > 10000 µg/mL
C[C@H]1COc2c1c(OC(=O)NCCNCC(=O)O)c(OC(=O)NCCNCC(=O)O)c1c3c(ccc21)C(C)(C)CCC3 [Example 12, 2,2′-{[(1R)-1,6,6-trimethyl-1,2,6,7,8,9-hexahydrophenanthro [1,2-b]furan-10,11-diyl]bis(oxycarbonylazanediylethane-2,1-diylazanediyl)}diacetic acid dihydrochloride]	100%	99.4%	pH dependent and chemical degradation progressed	100%	99.2%	98.9%	98.6%	98.4%	98.3%	100%	99.1%	98.1%	97.1%	96.4%	100%	9.8%	1.7%	1.4%	stable	stable	Residual ratio ([1]; pH2.0 buffer, 6 hr): 98.9%; Residual ratio ([1]; pH2.0 buffer, 9 hr): 98.7%; Residual ratio ([1]; pH2.0 buffer, 12 hr): 98.5%; Residual ratio ([1]; pH2.0 buffer, 24 hr): 98.5%; Residual ratio ([1]; pH5.0 buffer, 24 hr, dihydrochloride): 93% and 93.3%; Residual ratio ([1]; pH7.4 buffer, 12 hr): 0%; Residual ratio ([1]; pH7.4 buffer, 24 hr): 0%; Rate of generation of active form after 24 hours in buffer with pH of 7.4 [1]: 11%; solubility at 24 h [2]: > 10000 µg/mL
C[C@H]1COc2c1c(OC(=O)NCCCNCC(=O)O)c(OC(=O)NCCCNCC(=O)O)c1c3c(ccc21)C(C)(C)CCC3 [Example 13, 2,2′-{[(1R)-1,6,6-trimethyl-1,2,6,7,8,9-hexahydrophenanthro[1,2-b]furan-10,11-diyl]bis(oxycarbonylazanediylpropane-3,1-diylazanediyl)}diacetic acid dihydrochloride]			pH dependent and chemical degradation progressed	100%	100%	100%	99.8%	99.6%	100%	100%	99.4%	99.2%	99.0%	98.6%	100%	61.8%	42.6%	28.5%	stable	stable	Residual ratio ([1]; pH5.0 buffer, 24 hr): 98.4%; Residual ratio ([1]; pH7.4 buffer, 12 hr): 19.1%; Residual ratio ([1]; pH7.4 buffer, 24 hr, dihydrochloride): 6% and 6.1%; Rate of generation of active form after 24 hours in buffer with pH of 7.4 [1]: 5%; Residual ratio ([1]; pH9.0 buffer, 0 hr): 100%; Residual ratio ([1]; pH9.0 buffer, 3 hr): 99.7%; Residual ratio ([1]; pH9.0 buffer, 6 hr): 99.4%; Residual ratio ([1]; pH9.0 buffer, 9 hr): 99.3%; Residual ratio ([1]; pH9.0 buffer, 12 hr): 99.1%; Residual ratio ([1]; pH9.0 buffer, 24 hr): 100%; Stability in solution (in words) ([1]; pH of 5.0, 25° C.): stable; solubility at 24 h [2]: > 10000 µg/mL
CC(=O)c1cc2c(O)c3c(O)cccc3c(OC(=O)NCCCN)c2o1 [Reference Example 9, 2-Acetyl-4,5-dihydroxynaphtho[2,3-b]furan-9-yl(3-aminopropyl)carbamate hydrochloride]	100%	96.9%	pH dependent and chemical degradation progressed	101%	100%	100%	99.8%	99.5%	98.4%	102%	104%	99.7%	93.8%	87.4%	103%	83.0%	67.1%	52.7%	sufficient stability	sufficient stability	Residual ratio ([1]; pH2.0 buffer, 6 hr): 92.9%; Residual ratio ([1]; pH2.0 buffer, 9 hr): 85.7%; Residual ratio ([1]; pH2.0 buffer, 12 hr): 85.2%; Residual ratio ([1]; pH5.0 buffer, 24 hr, hydrochloride): 67% and 67.1%; Residual ratio ([1]; pH7.4 buffer, 12 hr): 41.1%; Residual ratio ([1]; pH7.4 buffer, 24 hr, hydrochloride): 26% and 25.5%; Rate of generation of active form after 24 hours in buffer with pH of 7.4 [1]: 71%; Residual ratio ([1]; pH9.0 buffer, 0 hr): 75.3%; Residual ratio ([1]; pH9.0 buffer, 3 hr): 13.7%; Residual ratio ([1]; pH9.0 buffer, 6 hr, hydrochloride): 0%; Residual ratio ([1]; pH9.0 buffer, 9 hr): 0.0%; Residual ratio ([1]; pH9.0 buffer, 12 hr): 0.0%; Residual ratio ([1]; pH9.0 buffer, 24 hr): 0.0%; solubility ([2]; pH 3, aqueous buffer): > 10000 µg/mL
